The subject of the assay is MM1.S. Kind of assay: Antiproliferative activity against human MM1.S cells assessed as inhibition of cell growth incubated for 72 hrs by celltiter-glo assay. It is filed as functional, cell-based. A general note: In ATP-based viability assays light output follows the ATP content of the culture.

Active and inactive are the calls of the source. The calls are words filed in the database; no cut-off is given here.

For `COC(=O)CNC(=O)/C(=C/n1cnc(-c2cc(C(F)(F)F)cc(C(F)(F)F)c2)n1)c1cncnc1`, the IC50 (usually the midpoint of a concentration-inhibition curve) came to 99.3 nM.

On to `NC(=O)/C(=C/n1ccc(-c2cc(C(F)(F)F)cc(C(F)(F)F)c2)n1)c1ccc(C(F)(F)F)nc1`, for which the IC50 was 1920 nM. `NC(=O)/C(=C/n1cnc(-c2cc(C(F)(F)F)cc(C(F)(F)F)c2)n1)c1cccc2cccnc12`: the half-maximal inhibitory concentration (IC50) was determined as 447 nM. As to `N#Cc1cn(/C=C(/C(N)=O)c2cncnc2)nc1-c1cc(C(F)(F)F)cc(C(F)(F)F)c1`, the 50% inhibitory concentration (IC50) came to 1220 nM. `Cc1ccc(/C(=C\n2cnc(-c3cc(C(F)(F)F)nc(C(F)(F)F)c3)n2)C(N)=O)cn1`: the half-maximal inhibitory concentration (IC50) came to 245 nM.

With `NC(=O)/C(=C/n1cnc(-c2cc(C(F)(F)F)nc(C(F)(F)F)c2)n1)c1cncnc1`, the IC50 amounted to 226 nM. Regarding `Cc1ccc(/C(=C\c2cnn(-c3cc(C(F)(F)F)cc(C(F)(F)F)c3)c2)C(N)=O)cn1`, the result was inactive. Regarding `COc1ncc(/C(=C\C(N)=O)c2cnn(-c3cc(C(F)(F)F)cc(C(F)(F)F)c3)c2)cn1`, the result was inactive. In the case of `CONC(=O)/C(=C/n1cnc(-c2cc(C(F)(F)F)cc(C(F)(F)F)c2)n1)c1ccc(C#N)nc1`, the IC50 came out at 185 nM. Take `NC(=O)/C=C(\c1ccc(F)nc1)c1cnn(-c2cc(C(F)(F)F)cc(C(F)(F)F)c2)c1`: the result was inactive. Regarding `NC(=O)/C=C(\c1ccncc1)c1cnn(-c2cc(C(F)(F)F)cc(C(F)(F)F)c2)c1`, the outcome was inactive. As to `NC(=O)/C(=C/c1cnn(-c2cc(C(F)(F)F)cc(C(F)(F)F)c2)c1)c1cncc(F)c1`, the IC50 came out at 2360 nM. For `O=C(NC1CCCCC1)/C(=C/n1cnc(-c2cc(C(F)(F)F)cc(C(F)(F)F)c2)n1)c1cncnc1`, the IC50 was 572 nM. Turning to `NC(=O)/C(=C/n1ccc(-c2cc(C(F)(F)F)cc(C(F)(F)F)c2)n1)c1ccncc1`, the half-inhibitory concentration (IC50) turned out to be 1430 nM. On to `NC(=O)/C(=C/n1cnc(-c2cc(C(F)(F)F)cc(C(F)(F)F)c2)n1)c1ccccc1`, for which the half-maximal inhibitory concentration (IC50) was found to be 346 nM. Regarding `CON(C)C(=O)/C(=C/n1cnc(-c2cc(C(F)(F)F)cc(C(F)(F)F)c2)n1)c1cncnc1`, the IC50 came out at 75.7 nM. With `NC(=O)/C(=C/c1cnn(-c2cc(C(F)(F)F)cc(C(F)(F)F)c2)c1)c1ccncc1`, the result was inactive.

With `CONC(=O)/C(=C/n1cnc(-c2cc(C(F)(F)F)cc(C(F)(F)F)c2)n1)c1ccc(C#N)cc1`, the half-maximal inhibitory concentration (IC50) is 1040 nM. With `CONC(=O)/C(=C/n1cnc(-c2cc(C(F)(F)F)cc(C(F)(F)F)c2)n1)c1ccsc1`, the concentration for half-maximal inhibition (IC50) was 990 nM.

Take `CONC(=O)/C(=C/n1cnc(-c2cc(C(F)(F)F)nc(C(F)(F)F)c2)n1)c1ccc(C)nc1`: the IC50 worked out at 207 nM. Same read-out and setting: under `CONC(=O)/C(=C/n1cnc(-c2cc(C(F)(F)F)cc(C(F)(F)F)c2)n1)c1ccc(OC)nc1` stands 166 nM; under `NC(=O)/C(=C/n1ccc(-c2cc(C(F)(F)F)cc(C(F)(F)F)c2)n1)c1cncnc1`, 1210 nM.

For the molecule `O=C(NC1CCCC1)/C(=C/n1cnc(-c2cc(C(F)(F)F)cc(C(F)(F)F)c2)n1)c1cncnc1`, the half-maximal inhibitory concentration (IC50) came out at 292 nM. `CONC(=O)/C(=C/n1cnc(-c2cc(C(F)(F)F)nc(C(F)(F)F)c2)n1)c1cncnc1`: the 50% inhibitory concentration (IC50) amounted to 198 nM. Consider `Cc1cn(/C=C(/C(N)=O)c2cncnc2)nc1-c1cc(C(F)(F)F)cc(C(F)(F)F)c1`, for which the outcome was inactive. On to `NC(=O)/C(=C/n1cnc(-c2cc(C(F)(F)F)cc(C(F)(F)F)c2)n1)c1c[nH]c2ccccc12`, for which the IC50 turned out to be 313 nM.

As for `NC(=O)/C=C(\c1cncc(F)c1)c1cnn(-c2cc(C(F)(F)F)cc(C(F)(F)F)c2)c1`, the outcome was inactive. For `O=C(NCc1ccccn1)/C(=C/n1cnc(-c2cc(C(F)(F)F)cc(C(F)(F)F)c2)n1)c1cncnc1`, the half-inhibitory concentration (IC50) was determined as 1500 nM. For `NC(=O)/C(=C/c1cnn(-c2cc(C(F)(F)F)cc(C(F)(F)F)c2)c1)c1cncnc1`, the half-maximal inhibitory concentration (IC50) was determined as 1750 nM. In the case of `CONC(=O)/C(=C/n1cnc(-c2cc(C(F)(F)F)cc(C(F)(F)F)c2)n1)c1cnc(OC)nc1`, the IC50 is 244 nM. Still for that read-out and setting: under `CC(C)(C)NNC(=O)/C(=C/n1cnc(-c2cc(C(F)(F)F)cc(C(F)(F)F)c2)n1)c1cncnc1` stands 332 nM. Same read-out and setting: to `N#Cc1ccc(/C(=C\n2ccc(-c3cc(C(F)(F)F)cc(C(F)(F)F)c3)n2)C(N)=O)cn1` belongs 880 nM.

For `CN(C)c1ncc(/C(=C\n2cnc(-c3cc(C(F)(F)F)cc(C(F)(F)F)c3)n2)C(N)=O)cn1`, the IC50 was determined as 1310 nM.

The values above are taken from ChEMBL document CHEMBL6083277, “Discovery of SZJK-0421: A Novel Potent, Low Toxicity, Selective Second Generation of CRM1 Inhibitor for the Treatment of Both Hematological and Solid Tumors” (J Med Chem, 2024).
